In ChEMBL document CHEMBL3639129, “Compounds having CRTH2 antagonist activity” (2013):

Biological target: T1, Prostaglandin D2 receptor 2 (Homo sapiens, UniProt Q9Y5Y4)
T1 sequence (Q9Y5Y4 whole entry): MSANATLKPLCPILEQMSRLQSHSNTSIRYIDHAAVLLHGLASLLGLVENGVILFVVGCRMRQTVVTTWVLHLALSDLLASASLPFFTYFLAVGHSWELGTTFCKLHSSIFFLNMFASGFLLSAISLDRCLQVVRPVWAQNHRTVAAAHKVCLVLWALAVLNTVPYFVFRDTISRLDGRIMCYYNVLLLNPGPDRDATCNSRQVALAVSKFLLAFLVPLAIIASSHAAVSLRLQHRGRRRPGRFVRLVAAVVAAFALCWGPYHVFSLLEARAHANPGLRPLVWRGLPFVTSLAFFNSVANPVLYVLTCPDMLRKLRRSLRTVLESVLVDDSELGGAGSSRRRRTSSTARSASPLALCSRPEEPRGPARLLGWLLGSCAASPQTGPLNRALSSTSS
Assay: Radioligand Binding Assay: Radioligand binding assay using CRTH2.

| SMILES | Ki [nM] |
| --- | --- |
| Cc1c(Cc2cccnc2S(=O)(=O)c2ccc(Cl)cc2)c2cc(F)ccc2n1CC(=O)O | 7 |
| Cc1c(Cc2cccnc2S(=O)(=O)c2ccc(F)cc2)c2cc(F)ccc2n1CC(=O)O | 2 |
